A short description of the data set: Decomposition temperature of sensitive compounds and of the encapsulated additives. In kind it is physicochemical. The settings on record: not encapsulated. From the text:
The sensitive compounds set forth in Table 1 constitute preferred examples of compounds that may be used in the preparation of the active and intelligent additive according to the present invention. The sensitive compounds release a certain amount of electrons according to the characteristic reaction for each compound.

Turning to `O=C1O[C@H]([C@@H](O)CO)C(O)=C1O` [Ascorbic Acid], the “Decomposition Temperature of the Sensitive Compound” value came out at 190 °C.

Citric Acid: the “Decomposition Temperature of the Sensitive Compound” value turned out to be 175 °C.

The values above are taken from patent US10144817B2, “Active and intelligent additive, polymer and article” (Braskem S.A., priority 2010, dated 2018).
